Assay results: PubChem BioAssay (NCI)
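Values below derive from 48-hour exposures of cells grown in 96-well plates, with endpoints linearly interpolated between the two concentrations bracketing the appropriate inhibition level. GI50: concentration for 50% inhibition of growth. At the TGI there is no net growth.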

Experiments:
Test in all cases: NCI anticancer screen, dose series, 48 h
SK-OV-3 ovarian = tested on: SK-OV-3 ovarian
A498 renal = tested on: A498 renal
SK-MEL-28 melanoma = tested on: SK-MEL-28 melanoma
OVCAR-3 ovarian = tested on: OVCAR-3 ovarian
UACC-257 melanoma = tested on: UACC-257 melanoma
HOP-92 NSCLC = tested on: HOP-92 NSCLC
HT29 colon = tested on: HT29 colon
PC-3 prostate = tested on: PC-3 prostate
HCT-15 colon = tested on: HCT-15 colon
MOLT-4 leukemia = tested on: MOLT-4 leukemia
EKVX NSCLC = tested on: EKVX NSCLC
BT-549 breast = tested on: BT-549 breast
SK-MEL-5 melanoma = tested on: SK-MEL-5 melanoma
NCI/ADR-RES ovarian = tested on: NCI/ADR-RES ovarian
MDA-MB-468 breast = tested on: MDA-MB-468 breast
NCI-H460 lung = tested on: NCI-H460 lung
LOX IMVI melanoma = tested on: LOX IMVI melanoma
UACC-62 melanoma = tested on: UACC-62 melanoma
MALME-3M melanoma = tested on: MALME-3M melanoma
U251 CNS = tested on: U251 CNS
HL-60(TB) leukemia = tested on: HL-60(TB) leukemia
RXF 393 renal = tested on: RXF 393 renal
T-47D breast = tested on: T-47D breast
MDA-MB-435 = tested on: MDA-MB-435
NCI-H226 lung = tested on: NCI-H226 lung
786-0 renal = tested on: 786-0 renal
UO-31 renal = tested on: UO-31 renal
SN12C renal = tested on: SN12C renal
OVCAR-5 ovarian = tested on: OVCAR-5 ovarian
MCF7 breast = tested on: MCF7 breast
OVCAR-8 ovarian = tested on: OVCAR-8 ovarian
SF-295 CNS = tested on: SF-295 CNS
SK-MEL-2 melanoma = tested on: SK-MEL-2 melanoma
NCI-H23 lung = tested on: NCI-H23 lung
HCC-2998 colon = tested on: HCC-2998 colon
KM12 colon = tested on: KM12 colon
CAKI-1 renal = tested on: CAKI-1 renal
MDA-MB-231 breast = tested on: MDA-MB-231 breast
NCI-H522 lung = tested on: NCI-H522 lung
COLO 205 colon = tested on: COLO 205 colon
HS 578T breast = tested on: HS 578T breast
SNB-19 CNS = tested on: SNB-19 CNS
SW-620 colon = tested on: SW-620 colon
IGROV1 ovarian = tested on: IGROV1 ovarian
TK-10 renal = tested on: TK-10 renal
A549 NSCLC = tested on: A549 NSCLC
M14 melanoma = tested on: M14 melanoma
SF-539 CNS = tested on: SF-539 CNS
HCT-116 colon = tested on: HCT-116 colon
ACHN renal = tested on: ACHN renal
SNB-75 CNS = tested on: SNB-75 CNS

Structure (SMILES): O/N=C(\CSc1nnc(-c2c[nH]c3ccccc23)n1-c1ccccc1)c1ccc(Br)cc1
- GI50 (SK-OV-3 ovarian): 2.53 µM
- TGI (SK-OV-3 ovarian): 6.03 µM
- GI50 (A498 renal): 16.3 µM
- TGI (A498 renal): 51.7 µM
- GI50 (SK-MEL-28 melanoma): 3.4 µM
- TGI (SK-MEL-28 melanoma): 12.5 µM
- GI50 (OVCAR-3 ovarian): 4.98 µM
- TGI (OVCAR-3 ovarian): 23.8 µM
- GI50 (UACC-257 melanoma): 3.87 µM
- TGI (UACC-257 melanoma): 17.5 µM
- GI50 (HOP-92 NSCLC): 3.66 µM
- TGI (HOP-92 NSCLC): 24.1 µM
- GI50 (HT29 colon): 2.23 µM
- TGI (HT29 colon): 5.03 µM
- GI50 (PC-3 prostate): 2.15 µM
- TGI (PC-3 prostate): 4.96 µM
- GI50 (HCT-15 colon): 2.11 µM
- TGI (HCT-15 colon): 4.72 µM
- GI50 (MOLT-4 leukemia): 2.09 µM
- TGI (MOLT-4 leukemia): 4.8 µM
- GI50 (EKVX NSCLC): 2.6 µM
- TGI (EKVX NSCLC): 9.09 µM
- GI50 (BT-549 breast): 3.16 µM
- TGI (BT-549 breast): 7.25 µM
- GI50 (SK-MEL-5 melanoma): 3.55 µM
- TGI (SK-MEL-5 melanoma): 12.8 µM
- GI50 (NCI/ADR-RES ovarian): 1.9 µM
- TGI (NCI/ADR-RES ovarian): 3.91 µM
- GI50 (MDA-MB-468 breast): 1.72 µM
- TGI (MDA-MB-468 breast): 3.3 µM
- GI50 (NCI-H460 lung): 3.53 µM
- TGI (NCI-H460 lung): 12.9 µM
- GI50 (LOX IMVI melanoma): 1.71 µM
- TGI (LOX IMVI melanoma): 3.12 µM
- GI50 (UACC-62 melanoma): 1.77 µM
- TGI (UACC-62 melanoma): 3.74 µM
- GI50 (MALME-3M melanoma): 3.22 µM
- TGI (MALME-3M melanoma): 14.3 µM
- GI50 (U251 CNS): 4.38 µM
- TGI (U251 CNS): 17.3 µM
- GI50 (HL-60(TB) leukemia): 1.92 µM
- TGI (HL-60(TB) leukemia): 4.55 µM
- GI50 (RXF 393 renal): 1.75 µM
- TGI (RXF 393 renal): 3.65 µM
- GI50 (T-47D breast): 3.51 µM
- TGI (T-47D breast): 17.2 µM
- GI50 (MDA-MB-435): 2.01 µM
- TGI (MDA-MB-435): 3.89 µM
- GI50 (NCI-H226 lung): 3.33 µM
- TGI (NCI-H226 lung): 14.9 µM
- GI50 (786-0 renal): 6.85 µM
- TGI (786-0 renal): 27 µM
- GI50 (UO-31 renal): 2.29 µM
- TGI (UO-31 renal): 7.81 µM
- GI50 (SN12C renal): 2.52 µM
- TGI (SN12C renal): 7.97 µM
- GI50 (OVCAR-5 ovarian): 2.18 µM
- TGI (OVCAR-5 ovarian): 5.21 µM
- GI50 (MCF7 breast): 3.49 µM
- TGI (MCF7 breast): 15.3 µM
- GI50 (OVCAR-8 ovarian): 2.45 µM
- TGI (OVCAR-8 ovarian): 6.5 µM
- GI50 (SF-295 CNS): 1.93 µM
- TGI (SF-295 CNS): 4.7 µM
- GI50 (SK-MEL-2 melanoma): 3.1 µM
- TGI (SK-MEL-2 melanoma): 10.4 µM
- GI50 (NCI-H23 lung): 4.31 µM
- TGI (NCI-H23 lung): 19.6 µM
- GI50 (HCC-2998 colon): 3.36 µM
- TGI (HCC-2998 colon): 12.3 µM
- GI50 (KM12 colon): 4.15 µM
- TGI (KM12 colon): 29.2 µM
- GI50 (CAKI-1 renal): 2.63 µM
- TGI (CAKI-1 renal): 8.1 µM
- GI50 (MDA-MB-231 breast): 1.71 µM
- TGI (MDA-MB-231 breast): 3.26 µM
- GI50 (NCI-H522 lung): 2.52 µM
- TGI (NCI-H522 lung): 7.7 µM
- GI50 (COLO 205 colon): 3.8 µM
- TGI (COLO 205 colon): 16.6 µM
- GI50 (HS 578T breast): 2.84 µM
- TGI (HS 578T breast): 11.9 µM
- GI50 (SNB-19 CNS): 4.33 µM
- TGI (SNB-19 CNS): 19.8 µM
- GI50 (SW-620 colon): 3.28 µM
- TGI (SW-620 colon): 12.1 µM
- GI50 (IGROV1 ovarian): 3.41 µM
- TGI (IGROV1 ovarian): 11.7 µM
- GI50 (TK-10 renal): 2.8 µM
- TGI (TK-10 renal): 7.63 µM
- GI50 (A549 NSCLC): 2.49 µM
- TGI (A549 NSCLC): 6.66 µM
- GI50 (M14 melanoma): 3.4 µM
- TGI (M14 melanoma): 17.6 µM
- GI50 (SF-539 CNS): 4.04 µM
- TGI (SF-539 CNS): 14.2 µM
- GI50 (HCT-116 colon): 3.45 µM
- TGI (HCT-116 colon): 17.4 µM
- GI50 (ACHN renal): 2.53 µM
- TGI (ACHN renal): 7.05 µM
- GI50 (SNB-75 CNS): 1.87 µM
- TGI (SNB-75 CNS): 4.95 µM
